Eleven compounds from patent US9708370B2, “Azapeptides as CD36 binding compounds” (VALORISATION-RECHERCHE, LIMITED PARTNERSHIP, priority 2007, dated 2017) can be followed below.

One assay concerns the target human GHS-R1a (Homo sapiens (Human), UniProt Q92847). The assay can be described thus: GHS-R1a binding assay, competition with 125I-ghrelin on membranes of LLC-PK1 cells expressing human GHS-R1a. The following applies: for binding affinity for GHS-R1a receptor in words: compared with GHRP-6. The method, then: Rat ghrelin was radio iodinated with Na^125I using the lodo-Beads iodination reagent (Pierce #28665). Briefly, an lodo-bead was incubated with 2 mCi of Na^125I (Amersham) in 100 μL of 50 mM sodium phosphate buffer, pH 7.0 for 5 min at 22° C. The reaction was started by adding 20 nmol of the peptide (1 mM in 0.1 M acetic acid). The tube was incubated for 10 min at 22° C. The iodination was terminated by adding 1 mL of 0.1% TFA. The mono-iodinated peptide was purified by reverse-phase HPLC using a Vydac C18 ([…]) column (30 cm×0.39 cm) in combination with a binary elution system of (A) 0.1% TFA in H2O and (B) 0.1% TFA, 10% H2O, 90% acetonitrile. Fractions of 0.5 mL were collected and analyzed by its radioactive content.
Cells (1.4×10^6) were plated in 100 mm plates and transfected 24 h later with pCDNA3.1-hGHS-R1a (UMR cDNA Resource Center #GHSR0A0000) following the CaHPO4 precipitation method. Briefly, 40 μg of plasmid DNA was diluted in 500 μL of sterile H2O and added to an equal volume of a 4× CaCl2, pH 7.9 solution (2 mM Tris-HCl, 0.2 mM EDTA, 500 mM CaCl2). The mixture was then added slowly with air bubbles to 1 mL of 2× Hepes-buffered saline, pH 7.1 (50 mM Hepes, 280 mM NaCl, 1.5 mM Na2HPO4). After 30 min at room temperature, 1 mL was distributed evenly over the cells and let overnight. The medium was changed the next morning and the membrane preparation was made two days later.
Cells were washed twice with PBS and once with ice-cold homogenization buffer (50 mM Tris-HCl, pH 7.3, 5 mM MgCl2, 2.5 mM EDTA, 30 μg/ml bacitracin). Cells were scraped and harvested in 1.5 mL tubes. Cells were then lysed by temperature shock with two freeze/thaw cycles in liquid nitrogen. The tubes were centrifuged at 14000 g for 20 min. Pellets were resuspended in homogenization buffer and stored at −80° C. until used. Total protein concentrations were determined with the BCA protein assay kit (Pierce).
Competition experiments were performed by incubating 50 μg of LLC-PK1 membranes expressing human GHS-R1a with 15 fmol of ^125I-Ghrelin and increasing concentrations of unlabeled ghrelin or with increasing concentrations of azapeptides derivatives in 0.5 mL of binding buffer. Bound radiolabelled ligand was separated from free by filtration on Whatman GF/C filters pretreated with a 1% polyethylenimine solution. Filters were washed with 2×3 mL of washing buffer (50 mM Tris-HCl, pH 7.3, 10 mM MgCl2, 2.5 mM EDTA, 0.015% Triton X-100). Filters were counted in a LKB gamma counter. Curves were analyzed using Prism software (GraphPad Software Inc).

The next assay deals with CD36 (Rattus norvegicus (Rat), UniProt Q07969). Put plainly: CD36 receptor covalent photolabelling binding assay, competition with [125I]Tyr-Bpa-Ala-hexarelin on rat cardiac membranes. The following applies: for binding activity/affinity at CD36 in words: compared with parent peptide GHRP-6 or hexarelin. The procedure:
The hearts from Sprague Dawley rats (300 g-325 g) from Charles River, used as a source of cardiac membranes, were prepared as follows: the heart was washed with ice-cold saline, and fatty and connective tissue was removed. The tissue was cut into small pieces with scissors and placed in a Sorvall centrifuge tube containing 5 ml/g of fresh tissue of Buffer A (10 mM NaHCO3, 5 mM NaN3, 10 μM Pefabloc, 0.1 μM Aprotinin, 1 μM Pepstatin A, 1 μM Leupeptin, pH 7.0). The suspension was homogenized with a Polytron at low speed, 3×15 sec. The homogenate was centrifuged at 8 700×g for 20 min and the supernatant was put on ice. The pellet was resuspended and homogenized with a Glass-teflon Potter by 5 strokes. The homogenate was centrifuged at 8 700×g for 10 min and this supernatant was combined with the first supernatant. The supernatant fluid was centrifuged at 35 000×g for 20 min, yielding a second pellet fraction that was suspended thoroughly in a glass homogenizer with a Teflon pestle in 20 ml/g of fresh tissue of Buffer B (20 mM Tris-maleate, 0.6M KCl, pH 6.8). The resulting suspension was centrifuged again at 35 000×g for 60 min. The third pellet fraction was resuspended thoroughly in a glass homogenizer with a Teflon pestle in 20 ml/g of fresh tissue of Buffer C (10 mM Tris/HCl buffer pH 7.4) followed with another centrifugation at 35 000×g for 60 min. The harvested precipitate was then suspended in a small volume (1-2 ml/g of fresh tissue) of 50 mM Tris/HCl buffer pH 7.4) containing 2 mM EGTA. The resulting membrane preparation was frozen at −80° C. Protein concentration was determined with bicinchoninic acid (BCA) method, using BSA as standard.
The iodination procedure was performed in the darkness. […] The reaction was started by adding 5 ul (3 nmol) of H2O2. The incubation was carried out at 22° C. for 5 min. The addition of H2O2 was repeated twice with 5 min incubation each time. The reaction was stopped with the addition of 1.4 ml of 0.1% TFA. The iodinated peptide was purified on a reverse-phase Vydac C18 column with a 60 min linear gradient (1 ml/min) from 20% to 50% acetonitrile (90%) in 0.1% TFA (10%).
Nonspecific binding was defined as binding not displaced by 50 μM corresponding peptide. All peptide containing solutions were diluted in Buffer B. Buffer A and B were degassed under vacuum, and used in capped tubes in order to minimize lipid peroxydation. Before the incubation period, all tubes were put under a low flow of nitrogen. All material was kept on ice and the binding assay was performed in darkness. After an incubation period of 60 min at 22° C. […] After centrifugation at 12 000×g for 15 minutes, the pellets were resuspended in 150 μl of sample buffer (62 mM Tris-HCl, pH 6.8, 2% SDS, 10% glycerol, 15% 2-mercapto-ethanol, and 0.05% bromophenol blue), and boiled for 5 min prior to being subjected to electrophoresis. Proteins (200 μg/100 μl) were separated on 7.5% SDS-PAGE (45 V overnight). The gels resulting from SDS/PAGE were fixed, colored in Coomassie Brilliant Blue R-250, dried, exposed to a storage phosphor intensifying screen (Amersham Biosciences), and analysed by using a Typhoon PhosphorImager (Amersham Biosciences) and ImageQuant 5.0 software to establish competition curves. Protein bands were quantified by densitometry. The covalent binding signal of 87 kDa was analyzed by densitometry using Typhoon Phospholmager™ (Typhoon, Amersham Biosciences) and ImageQuant 5.0® software to set competition curves.
Specific binding activities were defined as the ratio of the density of the protein band to that of a non-specific band. Results are expressed as the percentage of the density of the […] to that of the total binding band.

Where [1] appears, read: Table 5, read-out: IC50 Binding GHS-R1a.
The mark [2] stands for this setting: Table 6, read-out: IC50 Binding CD36.
Setting [3] is: Table 4, LLCPK-1 membranes overexpressing GHS-R1a, radioiodinated (1-28) rat ghrelin as tracer, read-out: EC50 (text: IC50 values from competition curves in GHS-R1a radioreceptor assay).
[4] abbreviates: Table 3, rat cardiac membranes, [125I]Tyr-Bpa-Ala-hexarelin as radioligand, read-out: IC50, binding affinity of aza peptide derivatives towards CD36.

SMILES strings stand for the structures. Like-named read-outs stand apart in the source and are kept apart here. Starred links: 1 amine or outer side, 2 acyl side, 3 side chain; linkers in the order of their positions; H or OH if unused. Non-standard residues stand in square brackets, D forms with d. Residues, ends and D or L forms follow the SMILES beside them. azaPhe = O=C(N(Cc1ccccc1)N[*:1])[*:2]; X2 = O=C(N(CCc1ccccc1)N[*:1])[*:2]; azaLeu = CC(C)CN(N[*:1])C(=O)[*:2]; X1 = O=C(N(CC1CCCCC1)N[*:1])[*:2]; azaPro = O=C(N1CCCN1[*:1])[*:2]

Chain of CD36 (Q07969 whole entry): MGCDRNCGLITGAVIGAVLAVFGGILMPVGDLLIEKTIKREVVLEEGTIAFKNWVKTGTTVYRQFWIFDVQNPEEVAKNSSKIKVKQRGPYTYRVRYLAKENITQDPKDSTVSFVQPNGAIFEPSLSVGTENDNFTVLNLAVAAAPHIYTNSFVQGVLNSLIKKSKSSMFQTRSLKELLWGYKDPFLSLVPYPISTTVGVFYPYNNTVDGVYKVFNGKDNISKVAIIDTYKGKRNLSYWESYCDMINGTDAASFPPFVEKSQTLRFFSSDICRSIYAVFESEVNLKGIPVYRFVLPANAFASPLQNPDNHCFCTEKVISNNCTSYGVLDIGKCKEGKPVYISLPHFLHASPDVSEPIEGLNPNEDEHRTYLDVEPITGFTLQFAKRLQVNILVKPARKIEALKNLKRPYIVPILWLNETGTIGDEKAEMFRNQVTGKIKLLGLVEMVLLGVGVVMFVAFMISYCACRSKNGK
Chain of human GHS-R1a (Q92847 whole entry): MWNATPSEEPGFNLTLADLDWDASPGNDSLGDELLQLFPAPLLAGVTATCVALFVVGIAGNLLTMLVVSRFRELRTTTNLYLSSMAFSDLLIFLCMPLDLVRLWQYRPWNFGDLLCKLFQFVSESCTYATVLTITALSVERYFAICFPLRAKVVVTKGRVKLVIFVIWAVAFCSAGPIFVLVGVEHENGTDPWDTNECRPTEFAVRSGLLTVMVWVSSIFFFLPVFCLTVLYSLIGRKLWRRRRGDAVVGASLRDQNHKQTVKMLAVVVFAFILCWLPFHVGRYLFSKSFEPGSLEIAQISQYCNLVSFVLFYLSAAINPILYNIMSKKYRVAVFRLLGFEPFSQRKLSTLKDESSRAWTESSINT

As for `CC(C)CN(NC(=O)[C@@H](Cc1c[nH]c2ccccc12)NC(=O)[C@@H](N)Cc1cnc[nH]1)C(=O)N[C@@H](Cc1c[nH]c2ccccc12)C(=O)N[C@H](Cc1ccccc1)C(=O)N[C@@H](C)C(N)=O` [CP-2B (i), His-D-Trp-azaLeu-Trp-D-Phe-Ala-NH2] (H-H[dW][azaLeu]W[dF]A-NH2), the half-inhibitory concentration (IC50) was 8.17 µM on human GHS-R1a (setting [1]) and 9.02 µM at CD36 (setting [2]). Moreover, the “binding activity/affinity at CD36 in words” value (shortened to “binding activity/affinity”) on CD36 was “retained significant activity similar to the parent peptide”.

As to `CC(C)CN(NC(=O)[C@@H](Cc1c[nH]c2ccccc12)NC(=O)[C@@H](N)Cc1cnc[nH]1)C(=O)N[C@@H](Cc1c[nH]c2ccccc12)C(=O)N[C@H](C)C(=O)N[C@@H](CCCCN)C(N)=O` [CP-2B (ii), His-D-Trp-azaLeu-Trp-D-Ala-Lys-NH2] (H-H[dW][azaLeu]W[dA]K-NH2), the half-inhibitory concentration (IC50) was greater than 10 µM at human GHS-R1a (setting [1]) and 4.94 µM on CD36 (setting [2]). Also, the “binding affinity for GHS-R1a receptor in words” value (“binding affinity” for short) at human GHS-R1a is recorded as “decreased drastically”. In addition, the “binding activity/affinity” value on CD36 was “retained significant activity similar to the parent peptide”; on CD36 (listed as CP-2B(ii)) it was “without major change”.

As to `CC(C)CN(NC(=O)[C@@H](Cc1c[nH]c2ccccc12)NC(=O)[C@@H](N)Cc1cnc[nH]1)C(=O)N[C@@H](C)C(=O)N[C@H](Cc1ccccc1)C(=O)N[C@@H](CCCCN)C(N)=O` [CP-2B (iii), His-D-Trp-azaLeu-Ala-D-Phe-Lys-NH2] (H-H[dW][azaLeu]A[dF]K-NH2), the half-maximal inhibitory concentration (IC50) on human GHS-R1a (setting [1]) is greater than 10 µM; at CD36 (setting [2]), 9.66 µM. In addition, the “binding activity/affinity” value at CD36 is “retained significant activity similar to the parent peptide”.

For `CC(C)CN(NC(=O)[C@@H](Cc1c[nH]c2ccccc12)NC(=O)[C@H](C)N)C(=O)N[C@@H](Cc1c[nH]c2ccccc12)C(=O)N[C@H](Cc1ccccc1)C(=O)N[C@@H](CCCCN)C(N)=O` [CP-2B (v), Ala-D-Trp-azaLeu-Trp-D-Phe-Lys-NH2] (H-A[dW][azaLeu]W[dF]K-NH2), the “binding affinity” value on human GHS-R1a is listed as “decreased drastically”. The 50% inhibitory concentration (IC50) on CD36 (setting [2]) was 3.68 µM. Besides, the entries for the “binding activity/affinity” value on CD36 and at CD36 (listed as CP-2B(v)) were “retained significant activity similar to the parent peptide” and “without major change”, respectively.

On to `C[C@H](NC(=O)[C@@H](Cc1c[nH]c2ccccc12)NC(=O)[C@@H](N)Cc1cnc[nH]1)C(=O)N[C@@H](Cc1c[nH]c2ccccc12)C(=O)N1CCCN1C(=O)N[C@@H](CCCCN)C(N)=O` [CP-AP-2, His-D-Trp-Ala-Trp-AzaPro-Lys-NH2] (H-H[dW]AW[azaPro]K-NH2), for which the IC50 at human GHS-R1a (setting [1]) and at CD36 (setting [2]) was greater than 10 µM each time.

On to `C[C@H](NC(=O)[C@@H](Cc1c[nH]c2ccccc12)NC(=O)[C@@H](N)Cc1cnc[nH]1)C(=O)N1CCCN1C(=O)N[C@H](Cc1ccccc1)C(=O)N[C@@H](CCCCN)C(N)=O` [CP-AP-3, His-D-Trp-Ala-azaPro-D-Phe-Lys-NH2] (H-H[dW]A[azaPro][dF]K-NH2), for which the concentration for half-maximal inhibition (IC50) on human GHS-R1a (setting [1]) and at CD36 (setting [2]) was greater than 10 µM throughout.

Turning to `C[C@H](NC(=O)[C@@H](Cc1c[nH]c2ccccc12)NC(=O)[C@@H](N)Cc1cnc[nH]1)C(=O)NN(Cc1ccccc1)C(=O)N[C@H](Cc1ccccc1)C(=O)N[C@@H](CCCCN)C(N)=O` [DBG253-1, His-D-Trp-Ala-azaPhe-D-Phe-Lys-NH2] (H-H[dW]A[azaPhe][dF]K-NH2), the IC50 stood at 2.77 µM at human GHS-R1a (setting [3]) and 1.34 µM on CD36 (setting [4]). For the same compound, the “binding affinity” value at human GHS-R1a is reported as “reducing the binding affinity”. For the same compound, on CD36, the “binding activity/affinity” value is recorded as “maintaining the binding activity”.

In the case of `CC(C)CN(NC(=O)[C@H](C)NC(=O)[C@@H](Cc1c[nH]c2ccccc12)NC(=O)[C@@H](N)Cc1cnc[nH]1)C(=O)N[C@H](Cc1ccccc1)C(=O)N[C@@H](CCCCN)C(N)=O` [DBG253-2, His-D-Trp-Ala-azaLeu-D-Phe-Lys-NH2] (H-H[dW]A[azaLeu][dF]K-NH2), the 50% inhibitory concentration (IC50) turned out to be 19.5 µM on human GHS-R1a (setting [3]) and 2890 µM on CD36 (setting [4]).

As to `C[C@H](NC(=O)[C@@H](Cc1c[nH]c2ccccc12)NC(=O)[C@@H](N)Cc1cnc[nH]1)C(=O)NN(CC1CCCCC1)C(=O)N[C@H](Cc1ccccc1)C(=O)N[C@@H](CCCCN)C(N)=O` [DBG253-4, His-D-Trp-Ala-azaCha-D-Phe-Lys-NH2] (H-H[dW]A[X1][dF]K-NH2), the IC50 at human GHS-R1a (setting [3]) was found to be 4.28 µM; on CD36 (setting [4]), 2100 µM.

Turning to `C[C@H](NC(=O)[C@@H](Cc1c[nH]c2ccccc12)NC(=O)[C@@H](N)Cc1cnc[nH]1)C(=O)NN(CCc1ccccc1)C(=O)N[C@H](Cc1ccccc1)C(=O)N[C@@H](CCCCN)C(N)=O` [DBG253-5, His-D-Trp-Ala-azahomoPhe-D-Phe-Lys-NH2] (H-H[dW]A[X2][dF]K-NH2), the 50% inhibitory concentration (IC50) is 3.74 µM on human GHS-R1a (setting [3]) and greater than 10 µM at CD36 (setting [4]).

In the case of `C[C@H](NC(=O)[C@@H](Cc1c[nH]c2ccccc12)NC(=O)[C@@H](N)Cc1cnc[nH]1)C(=O)N[C@@H](Cc1ccc(O)cc1)C(=O)N[C@H](Cc1ccccc1)C(=O)N[C@@H](CCCCN)C(N)=O` [DBG253-7, His-D-Trp-Ala-Tyr-D-Phe-Lys-NH2] (H-H[dW]AY[dF]K-NH2), the half-maximal inhibitory concentration (IC50) stood at 0.771 µM on human GHS-R1a (setting [3]) and 13.2 µM on CD36 (setting [4]).

As a reminder, the IC50 is the midpoint of a concentration-inhibition curve.
